Like-named read-outs stand apart in the source and are kept apart here.
Columns and labels:
[1] = tested on: Jurkat HIV-luciferase clones; experiment: Jurkat latency reversal assay; type: cell-based; conditions: Homo sapiens, 48 h; Jurkat latency reversal assay potency; read-out: Jurkat pEC50 (converted)
In short: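 Pooled Jurkat clones C16, 115 and N6, each carrying one or two integrated HIV-luciferase proviruses and kept in 500 nM EFV, were exposed to 3-fold, 14-point compound titrations in duplicate (10 μM top, 0.5% DMSO) for 48 h at 37° C. Luciferase luminescence was fitted by four-parameter logistic regression for EC50 and maximal percent activation versus vehicle.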

[2] = target: cIAP1-BIR3 (Homo sapiens (Human), UniProt Q13490); experiment: BIR binding assay (FRET competition), cIAP1 BIR3; conditions: for cIAP1 BIR3 vs BIR2 separation window: fold separation (FS) for cIAP1
Sequence of cIAP1-BIR3 (Q13490 253-363): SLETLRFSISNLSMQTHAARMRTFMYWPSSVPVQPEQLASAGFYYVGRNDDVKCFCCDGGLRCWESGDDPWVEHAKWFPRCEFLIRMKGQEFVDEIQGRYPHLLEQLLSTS
In short: (§1)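 His-tagged domains (50 nM cIAP1-BIR3, 325 nM cIAP2-BIR2, 325 nM cIAP1-BIR2, 100 nM XIAP-BIR3) compete with compounds for a 200 nM AlexaFluor647-labelled SMAC/DIABLO peptide in HEPES buffer, pH 7.4, for 60 min. Then 2 nM Eu-W1024 is added for 30 min. The 615/665 nm ratio is fit by four-parameter fit to give IC50.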

[3] = target: cIAP1-BIR2 (Homo sapiens (Human), UniProt Q13490); experiment: BIR binding assay (FRET competition), cIAP1 BIR2
Sequence of cIAP1-BIR2 (Q13490 173-257): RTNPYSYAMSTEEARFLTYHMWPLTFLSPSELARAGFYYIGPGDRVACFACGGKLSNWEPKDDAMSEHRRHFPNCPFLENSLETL
In short: as §1

[4] = target: cIAP2-BIR3 (Homo sapiens (Human), UniProt Q13489); experiment: BIR binding assay (FRET competition), cIAP2 BIR3; conditions: for cIAP2 BIR3 vs BIR2 separation window: fold separation (FS) for cIAP2
Sequence of cIAP2-BIR3 (Q13489 238-349): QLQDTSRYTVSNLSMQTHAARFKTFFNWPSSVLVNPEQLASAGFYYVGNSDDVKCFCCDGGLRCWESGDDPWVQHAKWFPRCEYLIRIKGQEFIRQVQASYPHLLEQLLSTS

[5] = target: cIAP2-BIR2 (Homo sapiens (Human), UniProt Q13489); experiment: BIR binding assay (FRET competition), cIAP2 BIR2
Sequence of cIAP2-BIR2 (Q13489 158-242): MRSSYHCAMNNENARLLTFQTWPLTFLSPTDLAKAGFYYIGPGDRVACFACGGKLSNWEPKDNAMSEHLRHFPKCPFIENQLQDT
In short: as §1

[6] = target: XIAP-BIR3 (Homo sapiens (Human), UniProt P98170); experiment: BIR binding assay (FRET competition), XIAP BIR3; conditions: for XIAP BIR3 vs BIR2 separation window: fold separation (FS) for XIAP
Sequence of XIAP-BIR3 (P98170 241-356): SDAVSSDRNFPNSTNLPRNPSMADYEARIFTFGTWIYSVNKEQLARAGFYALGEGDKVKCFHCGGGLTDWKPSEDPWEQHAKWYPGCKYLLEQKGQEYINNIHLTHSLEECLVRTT
In short: as §1

[7] = target: XIAP-BIR2 (Homo sapiens (Human), UniProt P98170); experiment: BIR binding assay (FRET competition), XIAP BIR2
Sequence of XIAP-BIR2 (P98170 124-240): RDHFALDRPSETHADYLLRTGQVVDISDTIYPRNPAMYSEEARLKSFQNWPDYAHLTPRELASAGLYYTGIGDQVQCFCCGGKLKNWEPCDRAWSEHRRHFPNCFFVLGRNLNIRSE
In short: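 Compounds in a 15-point, 3-fold series competed with an AlexaFluor647 SMAC peptide (AVPIAQKSE, 200 nM) for 200 nM His-tagged XIAP-BIR2 over 60 min in pH 7.4 HEPES/CHAPS/DTT buffer. Eu-W1024 (2 nM) was then added for 30 min. IC50 and pIC50 were derived from the 615 nm/665 nm emission ratio by variable-slope fit.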

[8] = FRET competition binding, read-out: XIAP BIR2 (pIC50) (converted)
[9] = FRET competition, read-out: XIAP BIR2 (pIC50) (converted)

Row | SMILES | EC50 [1] [nM] | IC50 [2] [nM] | cIAP1 BIR3 vs BIR2 separation window [2] | IC50 [3] [nM] | IC50 [4] [nM] | cIAP2 BIR3 vs BIR2 separation window [4] | IC50 [5] [nM] | IC50 [6] [nM] | XIAP BIR3 vs BIR2 separation window [6] | IC50 [7, 8] [nM] | IC50 [7] [nM] | IC50 [7, 9] [nM] | XIAP BIR2 (pIC50) ([7]; FRET competition binding)
1 | C[C@@H]1CN(CC(=O)N2CC(C)(C)c3[nH]c(=O)c(Cc4ccc(F)cc4)cc32)[C@@H](CN2CCN(C(=O)COc3cccc(OCC(=O)N4CCN(C[C@H]5CN[C@H](C)CN5CC(=O)N5CC(C)(C)c6[nH]c(=O)c(Cc7ccc(F)cc7)cc65)[C@H](C)C4)c3)C[C@H]2C)CN1 [Example 11, 1,1′-(2,2′-((3R,3′R,6R,6′R)-(((2R,2′R)-(2,2′-(1,3-phenylenebis(oxy))bis(acetyl))bis(2-methylpiperazine-4,1-diyl))bis(methylene))bis(3-methylpiperazine-6,1-diyl))bis(acetyl))bis(6-(4-fluorobenzyl)-3,3-dimethyl-1,2,3,4-tetrahydro-5H-pyrrolo[3,2-b]pyridin-5-one)] | 63.1 to 316 | 15.8 to 31.6 | ++ (1,000>FS>100) | 1000 to 3160 | 15.8 to 31.6 | ++ (1,000>FS>100) | 1000 to 3160 | 31.6 to 501 | ++++ (FS>10,000) | 10000 to 51300 | – | – | –
2 | C[C@@H]1CN(CC(=O)N2CC(C)(C)c3[nH]c(=O)c(Cc4ccc(F)cc4)cc32)[C@@H](CN2CCC(CN(C)C(=O)c3cccc(C(=O)N(C)CC4CCN(C[C@H]5CN[C@H](C)CN5CC(=O)N5CC(C)(C)c6[nH]c(=O)c(Cc7ccc(F)cc7)cc65)CC4)c3)CC2)CN1 [Example 95, N^1,N^3-bis((1-(((2R,5R)-1-(2-(6-(4-fluorobenzyl)-3,3-dimethyl-5-oxo-2,3,4,5-tetrahydro-1H-pyrrolo[3,2-b]pyridin-1-yl)-2-oxoethyl)-5-methylpiperazin-2-yl)methyl)piperidin-4-yl)methyl)-N^1,N^3-dimethylisophthalamide] | 63.1 to 316 | 31.6 to 501 | ++ (1,000>FS>100) | 1000 to 3160 | 1.38 to 7.94 | +++ (10,000>FS>1,000) | 1000 to 3160 | 7.94 to 15.8 | ++++ (FS>10,000) | 10000 to 51300 | – | – | –
3 | C[C@@H]1CN(CC(=O)N2CC(C)(C)c3ncc(Cc4ccccc4)cc32)[C@@H](CN2CCO[C@H](COc3cccc(OC[C@@H]4CN(C[C@H]5CN[C@H](C)CN5CC(=O)N5CC(C)(C)c6ncc(Cc7ccccc7)cc65)CCO4)c3)C2)CN1 [Compound 150] | 12.6 to 63.1 | 7.94 to 15.8 | +++ (10,000>FS>1,000) | 3160 to 10000 | 7.94 to 15.8 | ++++ (FS>10,000) | 10000 to 51300 | 15.8 to 31.6 | ++++ (FS>10,000) | – | 10000 to 51300 | – | –
4 | C[C@@H]1CN(CC(=O)N2CC(C)(C)c3[nH]c(=O)c(Cc4ccc(F)cc4)cc32)[C@@H](CN2CCO[C@H](C(=O)NCCOCCNC(=O)[C@@H]3CN(C[C@H]4CN[C@H](C)CN4CC(=O)N4CC(C)(C)c5[nH]c(=O)c(Cc6ccc(F)cc6)cc54)CCO3)C2)CN1 [Compound 138, (2S,2′S)-N,N′-(oxybis(ethane-2,1-diyl))bis(4-(((2R,5R)-1-(2-(6-(4-fluorobenzyl)-3,3-dimethyl-5-oxo-2,3,4,5-tetrahydro-1H-pyrrolo[3,2-b]pyridin-1-yl)-2-oxoethyl)-5-methylpiperazin-2-yl)methyl)morpholine-2-carboxamide)] | 63.1 to 316 | 1.38 to 7.94 | +++ (10,000>FS>1,000) | 1000 to 3160 | 1.38 to 7.94 | +++ (10,000>FS>1,000) | 1000 to 3160 | 7.94 to 15.8 | ++++ (FS>10,000) | – | – | 10000 to 51300 | –
5 | C[C@@H]1CN(CC(=O)N2CC(C)(C)c3[nH]c(=O)c(Cc4ccc(F)cc4)cc32)[C@@H](CN2CCO[C@H](COc3ccccc3OC[C@@H]3CN(C[C@H]4CN[C@H](C)CN4CC(=O)N4CC(C)(C)c5[nH]c(=O)c(Cc6ccc(F)cc6)cc54)CCO3)C2)CN1 [Example 71, 1,1′-(2,2′-((3R,3′R,6R,6′R)-(((2S,2'S)-((1,2-phenylenebis(oxy))bis(methylene))bis(morpholine-2,4-diyl))bis(methylene))bis(3-methylpiperazine-6,1-diyl))bis(acetyl))bis(6-(4-fluorobenzyl)-3,3-dimethyl-1,2,3,4-tetrahydro-5H-pyrrolo[3,2-b]pyridin-5-one)] | 63.1 to 316 | 7.94 to 15.8 | ++ (1,000>FS>100) | 1000 to 3160 | 7.94 to 15.8 | +++ (10,000>FS>1,000) | 1000 to 3160 | 15.8 to 31.6 | ++++ (FS>10,000) | 10000 to 51300 | – | – | –
6 | C[C@@H]1CN(CC(=O)N2CC(C)(C)c3[nH]c(=O)c(Cc4ccc(F)cc4)cc32)[C@@H](CN2CCO[C@H](C(=O)Nc3cccc(NC(=O)[C@@H]4CN(C[C@H]5CN[C@H](C)CN5CC(=O)N5CC(C)(C)c6[nH]c(=O)c(Cc7ccc(F)cc7)cc65)CCO4)c3)C2)CN1 [Compound 140, (2S,2′S)-N,N′-(1,3-phenylene)bis(4-(((2R,5R)-1-(2-(6-(4-fluorobenzyl)-3,3-dimethyl-5-oxo-2,3,4,5-tetrahydro-1H-pyrrolo[3,2-b]pyridin-1-yl)-2-oxoethyl)-5-methylpiperazin-2-yl)methyl)morpholine-2-carboxamide)] | 63.1 to 316 | 7.94 to 15.8 | +++ (10,000>FS>1,000) | 1000 to 3160 | 7.94 to 15.8 | +++ (10,000>FS>1,000) | 1000 to 3160 | 15.8 to 31.6 | ++++ (FS>10,000) | – | – | 10000 to 51300 | –
7 | C[C@@H]1CN(CC(=O)N2CC(C)(C)c3[nH]c(=O)c(Cc4ccc(F)cc4)cc32)[C@@H](CN2CCN(C(=O)c3ccc(C(=O)N4CCN(C[C@H]5CN[C@H](C)CN5CC(=O)N5CC(C)(C)c6[nH]c(=O)c(Cc7ccc(F)cc7)cc65)[C@H](C)C4)cc3)C[C@H]2C)CN1 [Example 19, 1,1′-(2,2′-((3R,3′R,6R,6′R)-(((2R,2′R)-terephthaloylbis(2-methylpiperazine-4,1-diyl))bis(methylene))bis(3-methylpiperazine-6,1-diyl))bis(acetyl))bis(6-(4-fluorobenzyl)-3,3-dimethyl-1,2,3,4-tetrahydro-5H-pyrrolo[3,2-b]pyridin-5-one)] | 63.1 to 316 | 1.38 to 7.94 | +++ (10,000>FS>1,000) | 22.4 to 1000 | 1.38 to 7.94 | +++ (10,000>FS>1,000) | 22.4 to 1000 | 1.38 to 7.94 | ++++ (FS>10,000) | – | – | – | + (4.29<pIC50<=5.00)

Reference: patent US20250326771A1, “PIPERAZINE DERIVATIVES USEFUL IN HIV THERAPY” (VIIV HEALTHCARE COMPANY, priority 2022, published 2025)
